We go through 27 compounds from patent publication US10005767B2, “Compositions and methods for inhibition of the JAK pathway” (Rigel Pharmaceuticals, Inc., priority 2009, dated 2018).

The first test relates to human primary T-cells, IL-2 stimulated proliferation (JAK-1 and JAK-3 dependent; reported as JAK3 activity). Put plainly: Human primary T-cell proliferation stimulated by IL-2 (Example 3). It counts as cell-based. Particulars: Homo sapiens, T-cell, tested under conditions described in Example 3 (IL-2 stimulated human primary T-cell proliferation); read-out: ability to inhibit JAK3 activity, IC50 range (Table V). From the text: The activity of the compounds described herein can further be characterized by assaying the effect of the 2,4-pyrimidinediamine compounds described herein on the proliferative response of primary human T-cells. In this assay, primary human T-cells derived from peripheral blood and pre-activated through stimulation of the T-cell receptor and CD28, proliferate in culture in response to the cytokine Interleukin-2 (IL-2). This proliferative response is dependent on the activation of JAK1 and JAK3 tyrosine kinases, which phosphorylate and activate the transcription factor Stat-5. The primary human T-cells are incubated with the 2,4-pyrimidinediamine compounds in the presence of IL-2 for 72 hours, and at the assay endpoint intracellular ATP concentrations are measured to assess cell viability. A reduction in cell proliferation compared to control conditions is indicative of inhibition of the JAK kinase pathway.
Primary human T-cells derived from peripheral blood and pre-activated through stimulation of the T-cell receptor and CD28, proliferate in vitro in response to the cytokine Interleukin-2 (IL-2). This proliferative response is dependent on the activation of JAK-1 and JAK-3 tyrosine kinases, which phosphorylate and activate the transcription factor Stat-5.
Human primary T cells were prepared as follows. […] The lymphocytes at the serum: ficoll interface were recovered and washed twice with 5 volumes of PBS. […] The primary T-cells were stimulated for 3-4 days, then transferred to a fresh flask and maintained in RPMI with 10% FBS and 40 U/mL IL-2.
The day prior to the assay set up, primary T-cells were centrifuged and resuspended in fresh RPMI with 10% FBS but without IL-2 and starved overnight. For the assay, the primary T-cells were centrifuged and resuspended Yssel's medium at 2×10^6 cells/mL. 50 μL of cell suspension containing 80 U/mL IL-2 was added to each well of a flat bottom 96 well black plate. For the unstimulated control, IL-2 was omitted from the last column on the plate. […] 50 μL of 2× compound was added per well in duplicate and the cells were allowed to proliferate for 72 hours at 37° C.
Proliferation was measured using CellTiter-Glo® Luminescent Cell Viability Assay (Promega), which determines the number of viable cells in culture based on quantitation of the ATP present, as an indicator of metabolically active cells. The substrate was thawed and allowed to come to ambient temperature. After mixing the Cell Titer-Glo reagent and diluent together, 100 μL was added to each well. The plates were mixed on an orbital shaker for two minutes to induce lysis and incubated at ambient temperature for an additional ten minutes to allow the signal to equilibrate.
The compound designations in Table V are consistent with those of Tables I-IV above.
As for `Cc1ccccc1Nc1ncc(C)c(Nc2ccc3oc(=O)[nH]c3c2)n1` [Compound I-499, 5-(2-(o-toluidino)-5-methylpyrimidin-4-ylamino)benzo[d]oxazol-2(3H)-one], the concentration for half-maximal inhibition (IC50) fell in the range of 0.5 to 5 µM.

Take `Cc1cnc(Nc2cnc3c(c2)c(C)nn3C)nc1Nc1ccc2oc(=O)[nH]c2c1` [IV-40, N2-(1,3-dimethyl-1H-pyrazolo[3,4-b]pyridin-5-yl)-5-methyl-N4-(2-oxo-2,3-dihydro-1,3-benzoxazol-5-yl)-2,4-pyrimidinediamine]: the IC50 is less than 0.5 µM.

As to `COc1ccc(C(F)(F)F)cc1Nc1ncc(C)c(Nc2ccc3oc(=O)[nH]c3c2)n1` [Compound I-498, 5-[2-(2-Methoxy-5-trifluoromethyl-phenylamino)-5-methyl-pyrimidin-4-ylamino]-3H-benzooxazol-2-one], the IC50 lay within 0.5 to 5 µM.

As for `Cc1cnc(Nc2cccnc2)nc1Nc1ccc2oc(=O)[nH]c2c1` [II-42, 5-[5-Methyl-2-(pyridin-3-ylamino)-pyrimidin-4-ylamino]-3H-benzooxazol-2-one], the half-maximal inhibitory concentration (IC50) lay within 0.5 to 5 µM.

With `Cc1cnc(Nc2ccc3c(c2)OC(C)(C)C(=O)N3)nc1Nc1ccc2oc(=O)[nH]c2c1` [IV-50, N2-[2,2-dimethyl-2H-1,4-benzoxazin-3(4H)-one-7-yl]-5-methyl-N4-(2-oxo-2,3-dihydro-1,3-benzoxazol-5-yl)-2,4-pyrimidinediamine], the IC50 is less than 0.5 µM.

For the compound `Cc1cnc(Nc2ccc(N3CCN(C(=O)OC(F)(F)F)CC3)nc2)nc1Nc1ccc2oc(=O)[nH]c2c1` [II-8, N4-(benzo[d]oxazol-2(3H)-on-5-yl)-N2-(6-(4-trifluoromethoxycarbonylpiperazin-1-yl)pyridin-3-yl)-5-methylpyrimidine-2,4-diamine], the IC50 was less than 0.5 µM.

For the compound `COc1cc(Nc2ncc(C)c(Nc3ccc4oc(=O)[nH]c4c3)n2)ccc1C(=O)Nc1ccccc1` [Compound I-221, 2-methoxy-4-(5-methyl-4-(2-oxo-2,3-dihydrobenzo[d]oxazol-5-ylamino)pyrimidin-2-ylamino)-N-phenylbenzamide], the IC50 was less than 0.5 µM.

On to `Cc1cnc(Nc2cccc(C(C)N3CCCCC3)c2)nc1Nc1ccc2oc(=O)[nH]c2c1` (stereo not drawn) [Compound I-215, 5-(5-methyl-2-(3-(1-(piperidin-1-yl)ethyl)phenylamino)pyrimidin-4-ylamino)benzo[d]oxazol-2(3H)-one], for which the IC50 was less than 0.5 µM.

As for `Cc1cnc(Nc2ccc(N3CCC(NC(=O)NC(C)(C)C)C3)nc2)nc1Nc1ccc2oc(=O)[nH]c2c1` (stereo not drawn) [II-97, 1-tert-butyl-3-(1-(5-(5-methyl-4-(2-oxo-2,3-dihydrobenzo[d]oxazol-5-ylamino)pyrimidin-2-ylamino)pyridin-2-yl)pyrrolidin-3-yl)urea], the 50% inhibitory concentration (IC50) is less than 0.5 µM.

In the case of `Cc1cnc(Nc2ccc(C(=O)O)cc2)nc1Nc1ccc2oc(=O)[nH]c2c1` [Compound I-126, 4-[5-Methyl-4-(2-oxo-2,3-dihydro-benzooxazol-5-ylamino)-pyrimidin-2-ylamino]-benzoic acid], the IC50 was less than 0.5 µM.

For `Cc1cnc(Nc2ccc(C(C)N3CCOCC3)cc2)nc1Nc1ccc2oc(=O)[nH]c2c1` (stereo not drawn) [Compound I-204, 5-(5-methyl-2-(4-(1-morpholinoethyl)phenylamino)pyrimidin-4-ylamino)benzo[d]oxazol-2(3H)-one], the IC50 was less than 0.5 µM.

As to `COc1cc(Nc2ncc(C)c(Nc3ccc4oc(=O)[nH]c4c3)n2)cc(C)c1F` [Compound I-432, 5-(2-(4-fluoro-3-methoxy-5-methylphenylamino)-5-methylpyrimidin-4-ylamino)benzo[d]oxazol-2(3H)-one], the IC50 was less than 0.5 µM.

For the compound `COc1cc(Nc2ncc(F)c(Nc3ccc4oc(=O)[nH]c4c3)n2)cc(OC)c1OC` [Compound I-115, N4-(benzoxazolin-2-on-5-yl)-N2-(3,4,5-trimethoxyphenyl)-5-fluoropyrimidine-2,4-diamine], the half-maximal inhibitory concentration (IC50) was less than 0.5 µM.

In the case of `Cc1cnc(Nc2ccc(N3CCO[C@H](C)C3)nc2)nc1Nc1ccc2oc(=O)[nH]c2c1` [II-135, 5-methyl-N2-[2-(2R-methylmorpholino)pyridin-5-yl]-N4-(2-oxo-2,3-dihydro-1,3-benzoxazol-5-yl)-2,4-pyrimidinediamine], the IC50 was less than 0.5 µM.

As to `CNC(C)c1cc(Nc2ncc(C)c(Nc3ccc4oc(=O)[nH]c4c3)n2)cc(OC)c1` (stereo not drawn) [Compound I-236, 5-(2-(3-methoxy-5-(1-(methylamino)ethyl)phenylamino)-5-methylpyrimidin-4-ylamino)benzo[d]oxazol-2(3H)-one], the IC50 is less than 0.5 µM.

Consider `Cc1ccc(Nc2ncc(C)c(Nc3ccc4oc(=O)[nH]c4c3)n2)cc1-c1cccnc1` [Compound I-444, 5-(5-methyl-2-(4-methyl-3-(pyridin-3-yl)phenylamino)pyrimidin-4-ylamino)benzo[d]oxazol-2(3H)-one], for which the IC50 was less than 0.5 µM.

The test is the same for the next values; noted with them: tested under conditions described in Example 3 (IL-2 stimulated human primary T-cell proliferation); read-out: ability to inhibit JAK3 activity, IC50 range (Table V).
As to `Cc1cnc(Nc2cc(C)c(C)c(C)c2)nc1Nc1cc(Cl)c2oc(=O)n(COP(=O)(OC(C)(C)C)OC(C)(C)C)c2c1` [Compound I-524, N4-{3-[bis(1,1-dimethylethoxy)]phosphinyloxymethyl-7-chloro-2-oxo-2,3-dihydro-1,3-benzoxazol-5-yl}-N2-(3,4,5-trimethyl)phenyl-5-methyl-2,4-pyrimidinediamine], the IC50 is more than 10 µM.

Turning to `Cc1cnc(Nc2ccc(NS(C)(=O)=O)cc2)nc1Nc1ccc2c(c1)n(C)c(=O)n2C` [Compound I-38, N4-(1,3-dimethylbenzimidazolin-2-on-5-yl)-N2-((4-methylsulfonylamino)phenyl)-5-methylpyrimidine-2,4-diamine], the IC50 is less than 0.5 µM.

On to `CCNC(=O)Nc1ccc(Nc2ncc(C)c(Nc3ccc4oc(=O)[nH]c4c3)n2)cc1` [Compound I-318, N2-[4-(ethylaminocarbonylamino)]phenyl-5-methyl-N4-(2-oxo-2,3-dihydro-1,3-benzoxazol-5-yl)-2,4-pyrimidinediamine], for which the IC50 is less than 0.5 µM.

For the compound `Cn1c(=O)n(C)c2cc(Nc3nc(Nc4cccc(S(C)(=O)=O)c4)ncc3F)ccc21` [Compound I-41, N4-(1,3-dimethylbenzimidazolin-2-on-5-yl)-N2-((3-methylsulfonyl)phenyl)-5-fluoropyrimidine-2,4-diamine], the IC50 was 0.5 to 5 µM.

Turning to `Cc1cnc(Nc2cc(OCC(C)C)cc(C(F)(F)F)c2)nc1Nc1ccc2oc(=O)[nH]c2c1` [Compound I-224, -(2-(3-isobutoxy-5-(trifluoromethyl)phenylamino)-5-methylpyrimidin-4-ylamino)benzo[d]oxazol-2(3H)-one], the IC50 lay within 0.5 to 5 µM.

`Cc1cnc(Nc2cccc(OC(F)F)c2)nc1Nc1ccc2oc(=O)[nH]c2c1` [Compound I-312, N2-(3-difluoromethoxy)phenyl-5-methyl-N4-(2-oxo-2,3-dihydro-1,3-benzoxazol-5-yl)-2,4-pyrimidinediamine]: the IC50 is less than 0.5 µM.

Turning to `Cc1cnc(Nc2cnc(N3CCN4CCC3CC4)c(F)c2)nc1Nc1ccc2oc(=O)[nH]c2c1` [II-125, N2-[2-(1,4-diazabicylco[3.2.2]nonan-4-yl)-3-fluoropyridin-5-yl]-5-methyl-N4-(2-oxo-2,3-dihydro-1,3-benzoxazol-5-yl)-2,4-pyrimidinediamine], the IC50 is less than 0.5 µM.

Regarding `Cc1cnc(Nc2ccc(OCCCO)nc2)nc1Nc1ccc2oc(=O)[nH]c2c1` [II-148, N2-[2-(3-hydroxy)propoxypyridin-5-yl]-5-methyl-N4-(2-oxo-2,3-dihydro-1,3-benzoxazol-5-yl)-2,4-pyrimidinediamine], the IC50 lay in the range of 0.5 to 5 µM.

For the compound `Cc1cc(Nc2ncc(C)c(Nc3ccc4oc(=O)[nH]c4c3)n2)cc(C(F)(F)F)c1` [Compound I-479, 5-methyl-N2-(3-methyl-5-trifluoromethyl)phenyl-N4-(2-oxo-2,3-dihydro-1,3-benzoxazol-5-yl)-2,4-pyrimidinediamine], the IC50 was less than 0.5 µM.

In the case of `COc1cc(Nc2ncc(C)c(Nc3ccc4oc(=O)n(COP(=O)(OC(C)(C)C)OC(C)(C)C)c4c3)n2)cc(C(F)(F)F)c1` [Compound I-356, N4-{3-[bis(1,1-dimethylethoxy)]phosphinyloxymethyl-2-oxo-2,3-dihydro-1,3-benzoxazol-5-yl}-N2-(3-methoxy-5-trifluoromethyl)phenyl-5-methyl-2,4-pyrimidinediamine], the half-inhibitory concentration (IC50) fell in the range of 5 to 10 µM.

For `Cc1cnc(Nc2ccc3c(c2)OCCO3)nc1Nc1ccc2oc(=O)[nH]c2c1` [IV-37, N2-(3,4-ethylenedioxy)phenyl-5-methyl-N4-(2-oxo-2,3-dihydro-1,3-benzoxazol-5-yl)-2,4-pyrimidinediamine], the concentration for half-maximal inhibition (IC50) is less than 0.5 µM.

What is called IC50 is the point on the concentration scale where inhibition reaches its midpoint.
